This passage reports GI50 and TGI results from PubChem BioAssay (NCI).

Test systems include RXF 393 renal; U251 CNS; MCF7 breast; OVCAR-3 ovarian; OVCAR-8 ovarian; HCT-15 colon; UACC-62 melanoma; SK-MEL-2 melanoma; MDA-MB-231 breast; CCRF-CEM leukemia.
Test in all cases: NCI anticancer screen, dose series, 48 h

Where “and” joins values, the source holds several entries; their conditions need not be identical. Identical values can stand only once.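 Step 1: Grow cells in 96-well plates. Step 2: Expose to compound for 48 hours at 5 concentrations. Step 3: Interpolate endpoints linearly; if unreached, use highest concentration. At the GI50, growth is halved. TGI: total growth inhibition.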 *1 amine or outer side, *2 acyl side, *3 side chain or, on linkers, in order; H or OH if unused. Where a SMILES comes first, the peptide text is derived from it. [ ]: non-standard residue; d: D form. X56 = CC[C@H](C)[C@H](OC(=O)[C@@H](C)[C@@H](CC)N[*:1])C(=O)[*:2]; X32 = C[C@H](N[*:1])C(=O)C(C)(C)C(=O)[*:2]; NMeY = CN[C@@H](Cc1ccc(O)cc1)C(=O)O; NMeL = CN[C@@H](CC(C)C)C(=O)O; NMeV = CN[C@H](C(=O)O)C(C)C

Regarding `OCC(O)C(O)C(O)/C=N/Nc1nc2ccccc2nc1-c1ccccc1` (stereo not given), the GI50 in the assay on RXF 393 renal is more than 100 µM; in the assay with U251 CNS, 77.9 µM; in the assay with MCF7 breast, 97.9 µM; with OVCAR-3 ovarian, 46 µM; with OVCAR-8 ovarian, 91.1 µM; in the assay with HCT-15 colon, 86.3 µM. Further, the GI50 with UACC-62 melanoma was 67.3 µM; with SK-MEL-2 melanoma, more than 100 µM; with MDA-MB-231 breast, 64.1 µM; with CCRF-CEM leukemia, 32.2 µM. Moreover, the TGI in the assay on RXF 393 renal, with U251 CNS, in the assay with MCF7 breast, in the assay with OVCAR-3 ovarian, in the assay with OVCAR-8 ovarian and with HCT-15 colon was more than 100 µM in each case. The TGI in the assay with UACC-62 melanoma, in the assay on SK-MEL-2 melanoma, in the assay on MDA-MB-231 breast and in the assay on CCRF-CEM leukemia was more than 100 µM each time.
As for `NS(=O)(=O)c1ccc(NC(=O)c2cccc3cc4ccccc4nc23)cc1`, the TGI with RXF 393 renal, with U251 CNS, in the assay with MCF7 breast, in the assay on OVCAR-3 ovarian, in the assay on OVCAR-8 ovarian and in the assay with HCT-15 colon was more than 100 µM each time. The TGI in the assay with UACC-62 melanoma, in the assay on SK-MEL-2 melanoma, in the assay with MDA-MB-231 breast and with CCRF-CEM leukemia was more than 100 µM in each case.
For the compound `N#Cc1c(N)nc(N2CCOCC2)c(C#N)c1-c1ccccc1Cl`, the GI50 with RXF 393 renal is 17.5 µM; in the assay on U251 CNS, 50 µM; in the assay on MCF7 breast, 17.7 µM; in the assay on OVCAR-3 ovarian, 17.3 µM; with OVCAR-8 ovarian, 42 µM; in the assay with HCT-15 colon, 41.4 µM. Further, the GI50 in the assay on UACC-62 melanoma is 18.9 µM; in the assay with SK-MEL-2 melanoma, 41.9 µM; in the assay on MDA-MB-231 breast, 31.2 µM; in the assay with CCRF-CEM leukemia, 45 µM. For the same compound, the TGI with RXF 393 renal is 72.3 µM; with U251 CNS, more than 100 µM; with MCF7 breast, 88.7 µM; in the assay with OVCAR-3 ovarian, 87.1 µM; with OVCAR-8 ovarian, more than 100 µM; in the assay on HCT-15 colon it was more than 100 µM. Further, the TGI in the assay on UACC-62 melanoma, in the assay on SK-MEL-2 melanoma, in the assay on MDA-MB-231 breast and with CCRF-CEM leukemia was more than 100 µM in each case.
For `CC[C@H](C)[C@@H]1OC(=O)[C@@H](C)[C@@H](CC)NC(=O)[C@H](C)NC(=O)C(C)(C)C(=O)[C@H](C)NC(=O)[C@H](Cc2ccc(OC)cc2)N(C)C(=O)[C@H](C(C)C)N(C)C(=O)CNC(=O)[C@H](CC(C)C)N(C)C(=O)CNC1=O` (cyclo(A[X56]G[NMeL]G[NMeV][NMeY](Me)[X32])), the GI50 with RXF 393 renal was 0.0274 µM; with OVCAR-3 ovarian, 0.0304 µM; in the assay on OVCAR-8 ovarian, 0.0335 µM; with HCT-15 colon, 0.222 µM; in the assay with UACC-62 melanoma it was 0.111 µM; in the assay with CCRF-CEM leukemia, less than 0.0152 µM. The TGI with RXF 393 renal was 0.0483 µM and 0.104 µM; in the assay with U251 CNS, 1.08 µM and 0.15 µM; in the assay on MCF7 breast, 1.26 µM; in the assay with OVCAR-3 ovarian it was 0.197 µM and 0.307 µM; in the assay with OVCAR-8 ovarian, 1.45 µM; in the assay with HCT-15 colon it was more than 34.2 µM. For the same compound, the TGI is 5.28 µM and 5.31 µM in the assay with UACC-62 melanoma; 0.438 µM and 2.68 µM with SK-MEL-2 melanoma; 0.792 µM in the assay with MDA-MB-231 breast.
Take `Cc1c(N=Cc2ccc(N(CCC#N)CCC#N)cc2)c(=O)n(-c2ccccc2)n1C`: the TGI in the assay with RXF 393 renal was 92.1 µM; in the assay with U251 CNS it was more than 100 µM; with MCF7 breast, more than 100 µM; with OVCAR-3 ovarian it was more than 100 µM; with OVCAR-8 ovarian it was more than 100 µM; in the assay on HCT-15 colon, more than 100 µM. Besides, the TGI in the assay with UACC-62 melanoma, in the assay on SK-MEL-2 melanoma, in the assay with MDA-MB-231 breast and with CCRF-CEM leukemia was more than 100 µM in each case.
With `O=C1CCS/C(=N\S(=O)(=O)c2ccc(N3N=C4c5ccccc5CC4C3c3cccs3)cc2)N1C(=O)c1ccccc1` (stereo not given), the GI50 with RXF 393 renal was 6.31 µM; with U251 CNS, 4.5 µM; in the assay with MCF7 breast it was 9.1 µM; with OVCAR-3 ovarian it was 27.4 µM; in the assay on OVCAR-8 ovarian, 0.816 µM; in the assay with HCT-15 colon, 15.1 µM. Besides, the GI50 is 6.37 µM in the assay on UACC-62 melanoma, 29.4 µM in the assay with SK-MEL-2 melanoma, 5.77 µM in the assay on MDA-MB-231 breast and 15 µM with CCRF-CEM leukemia. Moreover, the TGI with RXF 393 renal is 33 µM; in the assay on U251 CNS it was 17.4 µM; in the assay with MCF7 breast, more than 100 µM; with OVCAR-3 ovarian it was 67.1 µM; in the assay with OVCAR-8 ovarian, 17.5 µM; in the assay with HCT-15 colon it was 31.3 µM. The TGI in the assay with UACC-62 melanoma is 28 µM; in the assay on SK-MEL-2 melanoma, more than 100 µM; in the assay with MDA-MB-231 breast, 26.8 µM; in the assay on CCRF-CEM leukemia, 42.7 µM.
On to `OCc1ccc(N(CCN2CCCC2)Cc2ccc(F)cc2)cc1Cl`, for which the GI50 was 23.3 µM in the assay on RXF 393 renal; 15.5 µM in the assay with U251 CNS; 13.7 µM in the assay on MCF7 breast; 19.5 µM in the assay on OVCAR-3 ovarian; 14 µM in the assay with OVCAR-8 ovarian; 18.6 µM in the assay on HCT-15 colon. The GI50 was 13.9 µM in the assay on UACC-62 melanoma, 17 µM in the assay with SK-MEL-2 melanoma, 16 µM in the assay with MDA-MB-231 breast and 23.8 µM with CCRF-CEM leukemia. Further, the TGI worked out at 67.1 µM with RXF 393 renal; 32.4 µM in the assay with U251 CNS; 32.1 µM with MCF7 breast; 36.6 µM in the assay with OVCAR-3 ovarian; 30.3 µM in the assay with OVCAR-8 ovarian; 50.1 µM with HCT-15 colon. Also, the TGI with UACC-62 melanoma is 29.1 µM; with SK-MEL-2 melanoma, 33 µM; in the assay on MDA-MB-231 breast it was 38.1 µM; in the assay on CCRF-CEM leukemia, 91.5 µM.
